Experimental data from ChEMBL document CHEMBL4732247, “Discovery of A031 as effective proteolysis targeting chimera (PROTAC) androgen receptor (AR) degrader for the treatment of prostate cancer” (Eur J Med Chem, 2021).
The source made the active and inactive calls. The calls are words filed in the database; no cut-off is given here.

Legend:
[1] = system: VCaP; assay: Cytotoxicity against human VCaP cells assessed as growth inhibition at 4 uM after 4 days by CCK8 assay relative to control; assay type: functional; conditions: 96 h, time 4 day, read-out: GI
[2] = system: VCaP; assay: Cytotoxicity against human VCaP cells assessed as growth inhibition after 4 days by CCK8 assay; assay type: functional, cell-based; conditions: dose 0.032-4 µM, time 4.0 day
[3] = system: VCaP; assay: Cytotoxicity against human VCaP cells assessed as growth inhibition at 0.16 uM after 4 days by CCK8 assay relative to control; assay type: functional; conditions: 96 h, time 4 day, read-out: GI
[4] = system: VCaP; assay: Cytotoxicity against human VCaP cells assessed as growth inhibition at 0.8 uM after 4 days by CCK8 assay relative to control; assay type: functional; conditions: 96 h, time 4 day, read-out: GI
[5] = system: VCaP; assay: Cytotoxicity against human VCaP cells assessed as growth inhibition at 0.5 uM after 4 days by CCK8 assay relative to control; assay type: functional; conditions: 96 h, time 4 day, read-out: GI
[6] = system: VCaP; assay: Cytotoxicity against human VCaP cells assessed as growth inhibition at 0.25 uM after 4 days by CCK8 assay relative to control; assay type: functional; conditions: 96 h, time 4 day, read-out: GI
[7] = system: VCaP; assay: Cytotoxicity against human VCaP cells assessed as growth inhibition at 0.125 uM after 4 days by CCK8 assay relative to control; assay type: functional; conditions: 96 h, time 4 day, read-out: GI
[8] = system: VCaP; assay: Cytotoxicity against human VCaP cells assessed as growth inhibition at 1 uM after 4 days by CCK8 assay relative to control; assay type: functional; conditions: 96 h, time 4 day, read-out: GI
[9] = system: VCaP; assay: Cytotoxicity against human VCaP cells assessed as growth inhibition at 0.032 uM after 4 days by CCK8 assay relative to control; assay type: functional; conditions: 96 h, time 4 day, read-out: GI
[10] = system: VCaP; assay: Antitumour activity against human VcaP cells xenografted in AB zebra fish assessed as tumour growth inhibition at 5 uM after 5 days by CM-D11 dye based fluorescence microscopic method; conditions: 120 h, read-out: TGI
[11] = Toxicity in AB zebra fish assessed as mortality rate at 5 uM after 5 days relative to control; set-up: species or system Danio rerio; conditions: zebrafish, time 5 day
[12] = Toxicity in AB zebra fish assessed as rolled over at 5 uM after 5 days relative to control; set-up: species or system Danio rerio; conditions: zebrafish, 120 h, time 5 day
[13] = Toxicity in AB zebra fish assessed as mortality rate at 10 to 200 uM after 5 days relative to control; set-up: species or system Danio rerio; conditions: zebrafish, dose 10-200 µM, time 5 day
[14] = molecular target: T1, von Hippel-Lindau disease tumor suppressor/Androgen receptor (Homo sapiens) (UniProt P10275+P40337); assay: Protac activity at VHL3/AR in human VCAP cells assessed as induction of AR degradation at 2 uM after 2 hrs by western blot analysis relative to control; assay type: cell-based
T1 sequence (P10275 whole entry, looked up): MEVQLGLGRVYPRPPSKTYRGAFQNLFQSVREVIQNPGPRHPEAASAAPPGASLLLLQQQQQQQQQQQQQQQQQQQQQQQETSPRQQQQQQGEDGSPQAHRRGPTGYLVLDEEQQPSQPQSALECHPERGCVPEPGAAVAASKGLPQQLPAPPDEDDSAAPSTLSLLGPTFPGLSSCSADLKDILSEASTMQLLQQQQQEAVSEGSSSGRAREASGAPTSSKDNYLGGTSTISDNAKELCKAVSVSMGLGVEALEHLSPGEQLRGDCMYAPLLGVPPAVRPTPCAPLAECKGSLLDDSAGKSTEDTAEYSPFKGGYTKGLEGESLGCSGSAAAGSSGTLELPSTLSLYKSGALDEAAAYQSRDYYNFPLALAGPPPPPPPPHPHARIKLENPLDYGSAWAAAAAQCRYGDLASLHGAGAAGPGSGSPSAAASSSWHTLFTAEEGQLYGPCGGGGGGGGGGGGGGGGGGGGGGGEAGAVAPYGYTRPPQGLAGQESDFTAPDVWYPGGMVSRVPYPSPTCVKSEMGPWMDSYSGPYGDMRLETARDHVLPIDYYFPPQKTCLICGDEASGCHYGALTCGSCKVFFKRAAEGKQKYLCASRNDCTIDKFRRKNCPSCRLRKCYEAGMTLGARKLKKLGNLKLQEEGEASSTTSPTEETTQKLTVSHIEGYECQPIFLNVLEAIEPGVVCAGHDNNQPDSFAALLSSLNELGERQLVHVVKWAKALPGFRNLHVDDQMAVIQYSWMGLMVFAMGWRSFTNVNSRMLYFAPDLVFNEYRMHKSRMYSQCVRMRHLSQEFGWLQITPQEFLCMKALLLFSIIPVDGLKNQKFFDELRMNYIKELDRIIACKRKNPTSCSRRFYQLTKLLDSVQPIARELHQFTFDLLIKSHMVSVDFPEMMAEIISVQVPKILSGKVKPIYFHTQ
T1 sequence (P40337 whole entry, looked up): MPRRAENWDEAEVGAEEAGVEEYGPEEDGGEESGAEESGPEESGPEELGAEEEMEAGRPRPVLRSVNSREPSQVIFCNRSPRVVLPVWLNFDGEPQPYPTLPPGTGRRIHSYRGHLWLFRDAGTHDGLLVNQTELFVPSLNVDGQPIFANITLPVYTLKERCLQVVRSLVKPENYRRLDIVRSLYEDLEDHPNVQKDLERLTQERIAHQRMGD

[15] = system: VCaP; assay: Antitumour activity against human VcaP cells xenografted in AB zebra fish assessed as tumour growth inhibition at 2.8 uM after 5 days by […] dye based fluorescence microscopic method; assay type: functional; conditions: 120 h, time 5 day, read-out: TGI
[16] = Toxicity in AB zebra fish assessed as maximum non-toxic concentration after 5 days; set-up: species or system Danio rerio; conditions: zebrafish, time 5 day, read-out: MTC
[17] = Toxicity in AB zebra fish assessed as obvious precipitation at 50 to 100 uM after 5 days; set-up: species or system Danio rerio; conditions: zebrafish, 120 h, dose 50-100 µM, time 5 day
[18] = molecular target: T1, von Hippel-Lindau disease tumor suppressor/Androgen receptor (Homo sapiens); assay: Protac activity at VHL3//AR in human VCAP cells assessed as induction of AR degradation at 2 uM after 2 hrs in presence of E1 inhibitor MLN4924 by western blot analysis relative to control; assay type: cell-based
[19] = Toxicity in AB zebra fish assessed as mortality rate at 6.25 to 25 uM after 5 days relative to control; set-up: species or system Danio rerio; conditions: zebrafish, dose 6.25-25 µM, time 5 day
[20] = AUC in Sprague-Dawley rat […] at 1 mg/kg, iv measured up to 8 hrs by HPLC-MS analysis; assay type: ADME, organism-based; set-up: route intravenous, dose 1 mg/kg, time <=8; conditions: in vivo
[21] = Toxicity in AB zebra fish assessed as toxic phenotype at 6.25 to 25 uM after 5 days relative to control; set-up: species or system Danio rerio; conditions: zebrafish, 120 h, dose 6.25-25 µM, time 5 day
[22] = Cmax in Sprague-Dawley rat […] at 1 mg/kg, iv measured up to 8 hrs by HPLC-MS analysis; assay type: ADME, organism-based; set-up: route intravenous, dose 1 mg/kg, time <=8; conditions: in vivo
[23] = molecular target: T1, von Hippel-Lindau disease tumor suppressor/Androgen receptor (Homo sapiens); assay: Protac activity at VHL3/AR in human VCAP cells assessed as induction of AR degradation at 2 uM after 4.5 hrs by western blot analysis relative to control; assay type: cell-based
[24] = molecular target: T1, von Hippel-Lindau disease tumor suppressor/Androgen receptor (Homo sapiens); assay: Protac activity at VHL3/AR in human VCAP cells assessed as induction of AR degradation at 2 uM by western blot analysis; assay type: cell-based; conditions: time 2-4.5 hrs, TDE = time-dependent effect
[25] = molecular target: T1, von Hippel-Lindau disease tumor suppressor/Androgen receptor (Homo sapiens); assay: Protac activity at VHL3/AR in human VCAP cells assessed as induction of AR degradation at 2 uM after 2 hrs in presence of VHL-3 by western blot analysis; assay type: cell-based
[26] = molecular target: T1, von Hippel-Lindau disease tumor suppressor/Androgen receptor (Homo sapiens); assay: Protac activity at VHL3/AR in human VCAP cells assessed as induction of AR degradation at 2 uM after 2 hrs in presence of proteasome inhibitor MG132 by western blot analysis relative to control; assay type: cell-based
[27] = Half life in Sprague-Dawley rat […] at 1 mg/kg, iv measured up to 8 hrs by HPLC-MS analysis; assay type: ADME, organism-based; conditions: in vivo
[28] = system: VCaP; assay: Antitumour activity against human VcaP cells xenografted in AB zebra fish assessed as tumour growth inhibition at 8.3 uM after 5 days by […] dye based fluorescence microscopic method; assay type: functional; conditions: 120 h, time 5 day, read-out: TGI
[29] = system: VCaP; assay: Antitumour activity against human VcaP cells xenografted in AB zebra fish assessed as tumour growth inhibition at 25 uM after 5 days by […] dye based fluorescence microscopic method; assay type: functional; conditions: 120 h, time 5 day, read-out: TGI

Row | Compound | growth inhibition (GI) [2] | inhibition of growth at 0.5 µM [5] | inhibition of growth at 0.25 µM [6] | inhibition of growth at 0.125 µM [7] | inhibition of growth at 1 µM [8] | further results
1 | N#Cc1ccc(O[C@H]2C[C@H]3CC[C@@H](C2)N3C(=O)c2ccc(N3CCN(CCCCCCCNc4cccc5c4C(=O)N(C4CCC(=O)NC4=O)C5=O)CC3)cc2)cc1Cl (stereo not given in full) | Dose-dependent effect | – | – | – | – | inhibition of growth at 4 µM [1]: 47.2%; inhibition of growth at 0.16 µM [3]: 15.7%; inhibition of growth at 0.8 µM [4]: 42.4%
2 | N#Cc1ccc(O[C@H]2C[C@H]3CC[C@@H](C2)N3C(=O)c2cnc(N3CCN(CCCCCCCNc4cccc5c4C(=O)N(C4CCC(=O)NC4=O)C5=O)CC3)nc2)cc1Cl (stereo not given in full) | Dose-dependent effect | 28.3% | 27.4% | 26.7% | 37.5% | –
3 | N#Cc1ccc(O[C@H]2C[C@H]3CC[C@@H](C2)N3C(=O)c2ccc(N3CCN(CCCCCCCCCNc4cccc5c4C(=O)N(C4CCC(=O)NC4=O)C5=O)CC3)cc2)cc1Cl (stereo not given in full) | Dose-dependent effect | – | – | – | – | inhibition of growth at 4 µM [1]: 42.1%; inhibition of growth at 0.032 µM [9]: 15.4%; inhibition of growth at 0.16 µM [3]: 27.7%; inhibition of growth at 0.8 µM [4]: 42.5%
4 | N#Cc1ccc(O[C@H]2C[C@H]3CC[C@@H](C2)N3C(=O)c2ccc(N3CCN(CCCCCCCCNc4cccc5c4C(=O)N(C4CCC(=O)NC4=O)C5=O)CC3)cc2)cc1Cl (stereo not given in full) | Dose-dependent effect | – | – | – | – | inhibition of growth at 4 µM [1]: 51.2%; inhibition of growth at 0.032 µM [9]: 0.07%; inhibition of growth at 0.16 µM [3]: 22.9%; inhibition of growth at 0.8 µM [4]: 41.5%
5 | N#Cc1ccc(O[C@H]2C[C@H]3CC[C@@H](C2)N3C(=O)c2ccc(N3CCN(CCCCCCCCCOc4cccc5c4C(=O)N(C4CCC(=O)NC4=O)C5=O)CC3)cc2)cc1Cl (stereo not given in full) | Dose-dependent effect | – | – | – | – | inhibition of growth at 4 µM [1]: 30.6%; inhibition of growth at 0.8 µM [4]: 21.9%
6 | CNC(=O)c1ccc(N2C(=S)N(c3ccc(C#N)c(C(F)(F)F)c3)C(=O)C2(C)C)cc1F [ENZALUTAMIDE] | – | – | – | – | – | inhibition in vivo at 5 µM [10]: 49%; mortality at 120 h, 5 µM [11]: 0%; Activity [12]: 10%; mortality at 120 h, up to 200 µM [13]: 100%
7 | N#Cc1ccc(O[C@H]2C[C@H]3CC[C@@H](C2)N3C(=O)c2cnc(N3CCN(CCCCNc4cccc5c4C(=O)N(C4CCC(=O)NC4=O)C5=O)CC3)nc2)cc1Cl (stereo not given in full) | Dose-dependent effect | 44.4% | 29% | 19% | 50.4% | –
8 | N#Cc1ccc(O[C@H]2C[C@H]3CC[C@@H](C2)N3C(=O)c2cnc(N3CCN(CCCCCCNc4cccc5c4C(=O)N(C4CCC(=O)NC4=O)C5=O)CC3)nc2)cc1Cl (stereo not given in full) | Dose-dependent effect | 32.1% | 23.5% | 10.1% | 40.5% | –
9 | N#Cc1ccc(O[C@H]2C[C@H]3CC[C@@H](C2)N3C(=O)c2cnc(N3CCN(CCCCNc4ccc5c(c4)C(=O)N(C4CCC(=O)NC4=O)C5=O)CC3)nc2)cc1Cl (stereo not given in full) | – | 36.5% | 22.2% | 10.2% | 53.1% | –
10 | N#Cc1ccc(O[C@H]2C[C@H]3CC[C@@H](C2)N3C(=O)c2cnc(N3CCN(CCCNc4cccc5c4C(=O)N(C4CCC(=O)NC4=O)C5=O)CC3)nc2)cc1Cl (stereo not given in full) | Dose-dependent effect | 9.74% | – | – | 30.4% | –
11 | Cc1ncsc1-c1ccc([C@H](C)NC(=O)[C@@H]2C[C@@H](O)CN2C(=O)[C@@H](NC(=O)COCCN2CCN(c3ccc(C(=O)N4[C@@H]5CC[C@H]4C[C@@H](Oc4ccc(C#N)c(Cl)c4)C5)nc3)CC2)C(C)(C)C)cc1 | – | 33.9% | 25.6% | 18.8% | 43.2% | –
12 | Cc1ncsc1-c1ccc(CNC(=O)[C@@H]2C[C@@H](O)CN2C(=O)[C@@H](NC(=O)CCN2CCN(c3ccc(C(=O)N4[C@@H]5CC[C@H]4C[C@@H](Oc4ccc(C#N)c(Cl)c4)C5)cc3)CC2)C(C)(C)C)cc1 | – | 18.2% | 2.74% | 1.87% | 61.2% | –
13 | Cc1ncsc1-c1ccc([C@H](C)NC(=O)[C@@H]2C[C@@H](O)CN2C(=O)[C@@H](NC(=O)COCCN2CCN(c3ncc(C(=O)N4[C@@H]5CC[C@H]4C[C@@H](Oc4ccc(C#N)c(Cl)c4)C5)cn3)CC2)C(C)(C)C)cc1 | – | 66.1% | 56.4% | 40.3% | 69.6% | Activity [14]: Active; inhibition in vivo at 2.8 µM [15]: 28%; MNTC at 120 h [16]: 25 µM; Activity [17]: Toxic; Activity [18]: inactive; mortality at 120 h [19]: 0%; AUC at 8 h [20]: 1770 ng·h/mL; Activity [21]: Non-Toxic; Cmax [22]: 14400 ng/mL; Activity [23]: Active; Activity [24]: Tde; Activity [25]: Active; Activity [26]: inactive; half-life [27]: 34.2 min; inhibition in vivo at 8.3 µM [28]: 44%; inhibition in vivo at 25 µM [29]: 61%
14 | C[C@@]12C[C@H](NC(=O)c3ccc(N4CCN(CCCCCCNc5ccc6c(c5)C(=O)N(C5CCC(=O)NC5=O)C6=O)CC4)cc3)C[C@]1(C)C[C@@H](Oc1ccc(C#N)c(Cl)c1)C2 (stereo not given in full) | – | 34.5% | 31.8% | 30.7% | 35.3% | –
15 | N#Cc1ccc(O[C@H]2C[C@H]3CC[C@@H](C2)N3C(=O)c2cnc(N3CCN(CCCCCNc4cccc5c4C(=O)N(C4CCC(=O)NC4=O)C5=O)CC3)nc2)cc1Cl (stereo not given in full) | Dose-dependent effect | 30.1% | 24.6% | 20% | 36.9% | –
